# How the values were obtained:
# [1] = system: murine brachial plexus and sciatic nerves; experiment: In vivo nerve-specificity screening via systemic administration; set-up: species or system mice; conditions: 500 nmol intravenously in co-solvent formulation; sacrificed at 0.5 h, 1 h, 2 h, 4 h
# Protocol: Each compound was screened for its tissue-specificity using a previously published systemic administration strategy in murine brachial plexus and sciatic nerves.^1 Each compound from the benzo[c]phenoxazine library was formulated in the previously utilized co-solvent formulation (10% DMSO, 5% Kolliphor, 65% serum and 20% phosphate buffered saline) at 2.5 mM. 200 μL of the formulated fluorophore was administered intravenously before exposing the brachial plexus and sciatic nerves. Co-registered fluorescence and color images were collected of each nerve site using a custom built macroscopic imaging system with 710/75 nm excitation and 810 nm longpass emission filters. Custom written MatLab code was used to analyze the tissue specific fluorescence where regions of interest were selected on the nerve, muscle and adipose tissue using the white light images. These regions of interest were then analyzed on the co-registered matched fluorescence images permitting assessment of the nerve to muscle and nerve to adipose ratios in blinded manner.
# In vivo nerve-specificity screening of the benzo[c]phenoxazine derivative library. Each compound was screened for its tissue-specificity using a direct administration strategy (Barth & Gibbs, Theranostics 7, 573-593 (2017)) where nerve contrast was examined in murine brachial plexus and sciatic nerves. The benzo[c]phenoxazine derivatives were solubilized for in vivo use in the previously described co-solvent formulation (Gibbs-Strauss et al., Molecular imaging 10, 91-101 (2011)). The previously optimized staining procedure was utilized (Gibbs et al., PloS one 8, e73493 (2013)), which is described briefly as follows. […] Unstained nerve sites were used for all control images to quantify autofluorescence. […] The quantified tissue fluorescence intensities following direct administration of the fluorophores were used to calculate nerve-to-muscle, nerve-to-cut muscle, and nerve-to-adipose ratios as metrics of nerve contrast. […] Uninjected animals were used for all control images to quantify autofluorescence. Similarly to quantification protocol for the direct administration, the quantified tissue fluorescence intensities following systemic administration of the fluorophores were used to calculate nerve-to-muscle and nerve-to-adipose ratios as metrics of nerve contrast. […]
# Intraoperative fluorescence imaging systems. A custom-built small animal imaging system capable of real-time color and fluorescence imaging was used to acquire in vivo rodent images (Hackman et al., Molecular pharmaceutics (2015)). Briefly, the imaging system consisted of a QImaging EXi Blue monochrome camera (Surrey, British Columbia, CA) for fluorescence detection with a removable Bayer filter for collection of co-registered color and fluorescence images. […]
# [2] = system: murine brachial plexus and sciatic nerves; experiment: In vivo nerve-specificity screening via direct/topical administration; set-up: species or system mice; conditions: 500 μM in co-solvent formulation, 100 μL incubated 5 minutes on exposed nerve, imaged 30 minutes after staining; selected for further systemic screening
# Protocol: Each compound was screened for its tissue-specificity using a previously published direct/topical administration strategy in murine brachial plexus and sciatic nerves.^1 Each compound from the benzo[c]phenoxazine library was formulated in the previously utilized co-solvent formulation (10% DMSO, 5% Kolliphor, 65% serum and 20% phosphate buffered saline) at 500 μM. 100 μL of the formulated Oxazine were incubated on the exposed brachial plexus or sciatic nerve for 5 minutes. The fluorophore containing solution was removed and the area was irrigated with saline 18 times to remove any unbound fluorophore. Co-registered fluorescence and color images were collected of each stained area 30 minutes after benzo[c]phenoxazine direct/topical administration using a custom built macroscopic imaging system with 710/75 nm excitation and 810 nm longpass emission filters. Custom written MatLab code was used to analyze the tissue specific fluorescence where regions of interest were selected on the nerve, muscle, cut muscle and adipose tissue using the white light images. These regions of interest were then analyzed on the co-registered matched fluorescence images permitting assessment of the nerve-to-muscle, nerve-to-cut muscle, and nerve-to-adipose ratios in blinded manner.
# In vivo nerve-specificity screening of the benzo[c]phenoxazine derivative library. Each compound was screened for its tissue-specificity using a direct administration strategy (Barth & Gibbs, Theranostics 7, 573-593 (2017)) where nerve contrast was examined in murine brachial plexus and sciatic nerves. The benzo[c]phenoxazine derivatives were solubilized for in vivo use in the previously described co-solvent formulation (Gibbs-Strauss et al., Molecular imaging 10, 91-101 (2011)). The previously optimized staining procedure was utilized (Gibbs et al., PloS one 8, e73493 (2013)), which is described briefly as follows. The brachial plexus and sciatic nerves were surgically exposed by removal of overlaying adipose and muscle tissues. The benzo[c]phenoxazine compound was formulated at 500 μM in the co-solvent formulation and 100 μL was incubated on the exposed brachial plexus or sciatic nerve for 5 minutes. The fluorophore containing solution was removed and the area was irrigated with saline nine times, followed by a five-minute incubation with blank formulation and then irrigation with saline nine more times to remove any unbound fluorophore. Images were acquired 30 minutes following completion of staining. Unstained nerve sites were used for all control images to quantify autofluorescence. Each benzo[c]phenoxazine derivative was screened in n=3 mice or 6 nerve sites/fluorophore. The quantified tissue fluorescence intensities following direct administration of the fluorophores were used to calculate nerve-to-muscle, nerve-to-cut muscle, and nerve-to-adipose ratios as metrics of nerve contrast. […] Uninjected animals were used for all control images to quantify autofluorescence. Similarly to quantification protocol for the direct administration, the quantified tissue fluorescence intensities following systemic administration of the fluorophores were used to calculate nerve-to-muscle and nerve-to-adipose ratios as metrics of nerve contrast. […]
# Intraoperative fluorescence imaging systems. A custom-built small animal imaging system capable of real-time color and fluorescence imaging was used to acquire in vivo rodent images (Hackman et al., Molecular pharmaceutics (2015)). […]
# [3] = longest among reported nerve-specific fluorophores; cited from earlier work
Compound,"outcome of nerve-specificity screening (nerve-to-muscle, nerve-to-adipose ratios) following systemic administration [1]","outcome of nerve-specificity screening (nerve-to-muscle, nerve-to-cut muscle, nerve-to-adipose ratios) following direct administration [2]",emission wavelength maximum [3] [nm]
"CCN(CC)c1ccc2c3c(ccc2c1)N=c1cc2c(cc1O3)=NCCC2 [LGW07-14, 3-(diethylamino)-10,11-dihydro-9H-benzo[h]pyrido[3,2-b]phenoxazin-12-ium]",selected as lead benzo[c]phenoxazine nerve-specific fluorophores,lead candidates,
"CCN(CC)c1ccc2c(ccc3nc4ccc(=[N+](C)C)cc-4oc32)c1 [LGW07-92, N-(3-(diethylamino)-10H-benzo[c]phenoxazin-10-ylidene)-N-methylmethanaminium]",,lead candidates,
"CC/N=c1\ccc2nc3ccc4cc(N(CC)CC)ccc4c3oc-2c1C [LGW08-35, (E)-N-(3-(diethylamino)-11-methyl-10H-benzo[c]phenoxazin-10-ylidene)ethanaminium]",selected as lead benzo[c]phenoxazine nerve-specific fluorophores,lead candidates,
"CC/N=c1/cc2oc3c(ccc4cc(N(CC)CC)ccc43)nc-2c(C)c1 [LGW08-46, (E)-N-(3-(diethylamino)-8-methyl-10H-benzo[c]phenoxazin-10-ylidene)ethanaminium]",selected as lead benzo[c]phenoxazine nerve-specific fluorophores,lead candidates,
"CC/N=c1/cc2oc3c(ccc4cc(N(CC)CC)ccc43)nc-2cc1C [LGW 05-25, (Z)—N-(3-(diethylamino)-9-methyl-10H-benzo[c]phenoxazin-10-ylidene)ethanaminium]",selected as lead benzo[c]phenoxazine nerve-specific fluorophores,lead candidates,
CC/N=c1/cc2oc3cc(NCC)c(C)cc3nc-2cc1C [Oxazine 4],,,635

# Source: patent US12030893B2, “Near-infrared nerve-sparing benzo[c]phenoxazine fluorophores” (OREGON HEALTH & SCIENCE UNIVERSITY, priority 2018, dated 2024)
